Test [1] relates to sonic hedgehog pathway. Kind of test: Hedgehog reporter assay (gli-luciferase) in TM3 cells. In kind it is cell-based, mouse. The following applies: read-out: TM3 Avg. EC50. From the text: (§1) Mouse (TM3: mouse Leydig cells; S12: mouse embryonic mesenchymal cells) and human (Daoy: human medulloblastoma cell; HepM: human embryonic palatal mesenchymal cell) cell lines are used to screen small molecules for their ability to modulate the activity of the sonic hedgehog pathway (Table 1, Table 2, and Table 3). Stable hedgehog pathway reporter cell lines are established by specific antibiotic selection following transfection of a reporter plasmid containing a luciferase gene located directly downstream from the gli promoter. Consequently, any observable changes in cellular luciferase activity may be attributed to changes in sonic hedgehog pathway activity in mouse and human cells, respectively, since gli is the major by-product of this pathway. To calculate activity, we generate an eleven point dose curve for each compound using 1:3 dilutions in 96 well assay plates. Each plate tested also contains low and high control to establish maximal pathway activation so to establish/compare a percentage activation of each tested compound (AMAX) on respective plates.
(§2) Stable hedgehog pathway reporter cell lines are established following specific antibiotic selection following transfection of a reporter plasmid
(§3) In short, typically cells are plated in MicroTiter-plates at 10,000-20,000 cells per well, in growth media (containing 10%-20% FBS). After 48-72 hrs (HGL and DGL respectively) the media in the assay plates is switched to low-serum containing media (0.5% FBS). At that time compounds are added (at 1-5 μM) to the assay plates, in the presence or absence of hedgehog protein (octyl-modified version; 1-5 ng/ml). After another 24 hrs of incubation, the media from the assay plates is discarded and replaced with luciferase assay-mix. Subsequently, plates are incubated at RT for ˜15-30 mins and then read in a luminometer. [note: addition of the Hedgehog protein, although not critical, will sensitize the assay allowing the identification of weak actives].
For orientation: A reporter such as luciferase makes a cellular process visible.

Test [2] concerns sonic hedgehog pathway. The test is described as follows: Human hedgehog reporter assay HEPM-GliLuc (HGL). The following applies: read-out: HEPM Avg. EC50. It is filed as cell-based.
From the text: as §1, §2, §3

For test [3], the system named is sonic hedgehog pathway. The test is described as follows: Human hedgehog reporter assay Daoy-GliLuc (DGL). In kind it is cell-based. As to conditions: Daoy human medulloblastoma cells, gli-luciferase reporter; read-out: Daoy Avg. EC50.
From the text: as §1, §2, §3

Where [4] appears, read: TM3 mouse Leydig cells, gli-luciferase reporter.
Where [5] appears, read: HepM human embryonic palatal mesenchymal cells, gli-luciferase reporter.

pEC50: −log10 of the molar value. Where a name gives a salt, the structure may show the parent alone.

Usually pEC50 stands for −log10 of the EC50, conventionally taken in molar units. In the case of `CNC1CCC(N(Cc2cc(-c3cc(C)nc(C)c3)ccc2OC)C(=O)c2sc3ccccc3c2Cl)CC1` (centres unmarked) [Compound R1, 3-Chloro-benzo[b]thiophene-2-carboxylic acid[5-(2,6-dimethyl-pyridin-4-yl)-2-methoxy-benzyl]-(4-methylamino-cyclohexyl)-amide dihydrochloride], the values for the pEC50 in the test with sonic hedgehog pathway [1] (setting [4]) and with sonic hedgehog pathway [2] (setting [5]) were above 7.30 and 6.60 to 7.30, respectively.
On the same counts, the results for `CN[C@H]1CC[C@@H](N(Cc2cc(-c3ccc(C(C)=O)cc3)ccc2OC)C(=O)C2=C(Cl)c3c(F)ccc(F)c3C2)CC1` [Compound R8, 3-Chloro-4,7-difluoro-benzo[b]thiophene-2-carboxylic acid(4′-carbamoyl-4-methoxy-biphenyl-3-ylmethyl)-(4-methylamino-cyclohexyl)-amide hydrochloride] are above 7.30 and above 7.30.
For `CNC1CCC(N(Cc2cc(-c3ccc(C(F)(F)F)cc3)ccc2OC)C(=O)c2sc3ccccc3c2Cl)CC1` (centres unmarked) [Compound 306, 3-Chloro-benzo[b]thiophene-2-carboxylic acid (4-methoxy-4′-trifluoromethyl-biphenyl-3-ylmethyl)-(4-methylamino-cyclohexyl)-amide trifluoroacetate], the pEC50 was 6.60 to 7.30 in the test on sonic hedgehog pathway [1] (setting [4]) and above 7.30 in the test on sonic hedgehog pathway [3].
Regarding `CCOc1ccc(-c2ccc(OC)cc2)cc1CN(C(=O)c1sc2ccccc2c1Cl)C1CCC(NC)CC1` (centres unmarked) [Compound 312, 3-Chloro-benzo[b]thiophene-2-carboxylic acid (4-ethoxy-4′-methoxy-biphenyl-3-ylmethyl)-(4-methylamino-cyclohexyl)-amide hydrochloride], in the test with sonic hedgehog pathway [3], the pEC50 was 6.60 to 7.30.
For the compound `CNC1CCC(N(Cc2cc(-c3ccnc(C(=O)O)c3)ccc2OC)C(=O)c2sc3c(F)ccc(F)c3c2Cl)CC1` (centres unmarked) [Compound R6, 4-(3-{[(3-Chloro-4,7-difluoro-benzo[b]thiophene-2-carbonyl)-(4-methylamino-cyclohexyl)-amino]-methyl}-4-methoxy-phenyl)-pyridine-2-carboxylic acid bis(trifluoroacetate)], the pEC50 in the test on sonic hedgehog pathway [1] (setting [4]) and in the test with sonic hedgehog pathway [2] (setting [5]) was 6.60 to 7.30 throughout.
Take `CNC1CCC(N(Cc2cc(-c3ccnc(C)c3)ccc2OC)C(=O)c2sc3ccccc3c2Cl)CC1` (centres unmarked) [331 (R11), 3-Chloro-benzo[b]thiophene-2-carboxylic acid[2-methoxy-5-(2-methyl-pyridin-4-yl)-benzyl]-(4-methylamino-cyclohexyl)-amide dihydrochloride]: the pEC50 in the test with sonic hedgehog pathway [1] (setting [4]) and with sonic hedgehog pathway [2] (setting [5]) was above 7.30 each time.
With `CNC1CCC(N(Cc2cc(-c3cccc(C#N)c3)ccc2OC)C(=O)c2sc3c(F)ccc(F)c3c2Cl)CC1` (centres unmarked) [Compound 337, 3-Chloro-4,7-difluoro-benzo[b]thiophene-2-carboxylic acid (3′-cyano-4-methoxy-biphenyl-3-ylmethyl)-(4-methylamino-cyclohexyl)-amide hydrochloride], the pEC50 in the test on sonic hedgehog pathway [1] (setting [4]) and in the test on sonic hedgehog pathway [2] (setting [5]) was above 7.30 each time.
As for `CN[C@H]1CC[C@H](N(Cc2cc(-c3cnc(N)nc3)ccc2OC)C(=O)c2sc3ccccc3c2Cl)CC1` [Compound 323, 3-Chloro-benzo[b]thiophene-2-carboxylic acid[5-(2-amino-pyrimidin-5-yl)-2-methoxy-benzyl]-(4-methylamino-cyclohexyl)-amide dihydrochloride], the values for the pEC50 in the test on sonic hedgehog pathway [1] (setting [4]) and in the test with sonic hedgehog pathway [3] were 6.60 to 7.30 and above 7.30, respectively.
With `CNc1ncc(-c2ccc(OC)c(CN(C(=O)c3sc4ccccc4c3Cl)[C@H]3CC[C@H](NC)CC3)c2)cn1` [Compound 322, 3-Chloro-benzo[b]thiophene-2-carboxylic acid[2-methoxy-5-(2-methylamino-pyrimidin-5-yl)-benzyl]-(4-methylamino-cyclohexyl)-amide dihydrochloride], the figures for the pEC50 with sonic hedgehog pathway [1] (setting [4]) and in the test with sonic hedgehog pathway [3] were 6.00 to 6.60 and 6.60 to 7.30, respectively.
For `CN[C@H]1CC[C@H](N(Cc2cc(-c3ccc(F)cc3)ccc2OC)C(=O)c2sc3ccccc3c2Cl)CC1` [Compound 314, 3-Chloro-benzo[b]thiophene-2-carboxylic acid (4′-fluoro-4-methoxy-biphenyl-3-ylmethyl)-(4-methylamino-cyclohexyl)-amide hydrochloride], the pEC50 with sonic hedgehog pathway [1] (setting [4]) and in the test on sonic hedgehog pathway [3] was above 7.30 in each case.
Consider `CNC1CCC(N(Cc2cc(-c3ccc(S(C)(=O)=O)cc3)ccc2OC)C(=O)c2sc3ccccc3c2Cl)CC1` (centres unmarked) [Compound R7, 3-Chloro-benzo[b]thiophene-2-carboxylic acid (4′-methanesulfonyl-4-methoxy-biphenyl-3-ylmethyl)-(4-methylamino-cyclohexyl)-amide hydrochloride], for which the pEC50 in the test on sonic hedgehog pathway [1] (Mus musculus, Leydig) is above 7.30; in the test on sonic hedgehog pathway [2] (Homo sapiens), above 7.30.
As to `CNC1CCC(N(Cc2cc(-c3ccc(OC(F)(F)F)cc3)ccc2OC)C(=O)c2sc3ccccc3c2Cl)CC1` (centres unmarked) [Compound 307, 3-Chloro-benzo[b]thiophene-2-carboxylic acid (4-methoxy-4′-trifluoromethoxy-biphenyl-3-ylmethyl)-(4-methylamino-cyclohexyl)-amide hydrochloride], the pEC50 with sonic hedgehog pathway [1] (setting [4]) and in the test with sonic hedgehog pathway [3] was above 7.30 each time.
Turning to `CCOc1ccc(-c2ccc(C(=O)C(F)(F)F)cc2)cc1CN(C(=O)c1sc2c(F)ccc(C)c2c1Cl)[C@H]1CC[C@@H](NC)CC1` [Compound 341, 3-Chloro-4,7-difluoro-benzo[b]thiophene-2-carboxylic acid[4-ethoxy-4′-(2,2,2-trifluoro-acetyl)-biphenyl-3-ylmethyl]-(4-methylamino-cyclohexyl)-amide trifluoroacetate], the pEC50 in the test with sonic hedgehog pathway [1] (setting [4]) was above 7.30; in the test with sonic hedgehog pathway [2] (setting [5]) it was 6.60 to 7.30.
The like results for `CNC1CCC(N(Cc2cc(-c3ccncc3)ccc2OC)C(=O)c2sc3ccccc3c2Cl)CC1` (centres unmarked) [Compound 339 (R12), 3-Chloro-benzo[b]thiophene-2-carboxylic acid (2-methoxy-5-pyridin-4-yl-benzyl)-(4-methylamino-cyclohexyl)-amide dihydrochloride] were, in that order, above 7.30 and above 7.30.
Take `CN[C@H]1CC[C@H](N(Cc2cc(-c3cccc(C(C)=O)c3)ccc2OC)C(=O)c2sc3cccc(F)c3c2Cl)CC1` [Compound 363, 3-Chloro-4-fluoro-benzo[b]thiophene-2-carboxylic acid (3′-acetyl-4-methoxy-biphenyl-3-ylmethyl)-(4-methylamino-cyclohexyl)-amide hydrochloride]: the pEC50 in the test with sonic hedgehog pathway [1] (setting [4]) and in the test on sonic hedgehog pathway [3] was above 7.30 throughout.
For the compound `CNC1CCC(N(Cc2cc(-c3ccc(Cl)cc3)ccc2OC)C(=O)c2sc3ccccc3c2Cl)CC1` (centres unmarked) [Compound 308, 3-Chloro-benzo[b]thiophene-2-carboxylic acid (4′-chloro-4-methoxy-biphenyl-3-ylmethyl)-(4-methylamino-cyclohexyl)-amide hydrochloride], the pEC50 in the test on sonic hedgehog pathway [1] (setting [4]) and with sonic hedgehog pathway [3] was above 7.30 throughout.
For the compound `CNC1CCC(N(Cc2cc(-c3ccc(C#N)cc3)ccc2OC)C(=O)c2sc3c(F)ccc(F)c3c2Cl)CC1` (centres unmarked) [Compound 351, 3-Chloro-4,7-difluoro-benzo[b]thiophene-2-carboxylic acid (4′-cyano-4-methoxy-biphenyl-3-ylmethyl)-(4-methylamino-cyclohexyl)-amide hydrochloride], the pEC50 in the test with sonic hedgehog pathway [1] (setting [4]) and in the test on sonic hedgehog pathway [2] (setting [5]) was above 7.30 each time.
As for `CCOc1ccc(-c2ccccc2)cc1CN(C(=O)c1sc2ccccc2c1Cl)C1CCC(NC)CC1` (centres unmarked) [Compound 313, 3-Chloro-benzo[b]thiophene-2-carboxylic acid (4-ethoxy-biphenyl-3-ylmethyl)-(4-methylamino-cyclohexyl)-amide hydrochloride], the pEC50 in the test on sonic hedgehog pathway [1] (setting [4]) is 6.60 to 7.30; with sonic hedgehog pathway [3], above 7.30.
In the case of `CCOc1ccc(-c2ccc(C#N)cc2)cc1CN(C(=O)c1sc2ccccc2c1Cl)C1CCC(NC)CC1` (centres unmarked) [Compound R2, 3-Chloro-benzo[b]thiophene-2-carboxylic acid (4′-cyano-4-ethoxy-biphenyl-3-ylmethyl)-(4-methylamino-cyclohexyl)-amide hydrochloride], the pEC50 in the test with sonic hedgehog pathway [1] (setting [4]) and in the test with sonic hedgehog pathway [2] (setting [5]) was 6.60 to 7.30 throughout.
For the compound `CCOc1ccc(-c2ccc(C)nc2)cc1CN(C(=O)c1sc2ccccc2c1Cl)C1CCC(NC)CC1` (centres unmarked) [Compound R4, 3-Chloro-benzo[b]thiophene-2-carboxylic acid[2-ethoxy-5-(6-methyl-pyridin-3-yl)-benzyl]-(4-methylamino-cyclohexyl)-amide dihydrochloride], the pEC50 in the test on sonic hedgehog pathway [1] (setting [4]) and in the test on sonic hedgehog pathway [2] (setting [5]) was 6.60 to 7.30 in each case.
On to `CCOc1ccc(-c2ccc(C(F)(F)F)cc2)cc1CN(C(=O)c1sc2ccccc2c1Cl)C1CCC(NC)CC1` (centres unmarked) [Compound 309, 3-Chloro-benzo[b]thiophene-2-carboxylic acid (4-ethoxy-4′-trifluoromethyl-biphenyl-3-ylmethyl)-(4-methylamino-cyclohexyl)-amide hydrochloride], for which the pEC50 in the test on sonic hedgehog pathway [1] (setting [4]) is 6.60 to 7.30; in the test with sonic hedgehog pathway [3] it was above 7.30.

Source of the values: patent US20120245184A1 (Aderans Research Institute, Inc., priority 2006, published 2012).
